Holding throughout (assay): NCI-60 cell line screen, 48 h
Assay [1] deals with 786-0 renal.
Assay [2] deals with BT-549 breast.
Assay [3] deals with CCRF-CEM leukemia.
The test system of assay [4] is COLO 205 colon.
The subject of assay [5] is EKVX NSCLC.
In assay [6] the test system is HCC-2998 colon.
Assay [7] deals with HOP-62 NSCLC.
For assay [8], the system named is M14 melanoma.
The test system of assay [9] is MDA-MB-231 breast.
The subject of assay [10] is MOLT-4 leukemia.
In assay [11] the test system is OVCAR-8 ovarian.
The test system of assay [12] is RXF 393 renal.
Assay [13] concerns SF-295 CNS.
Assay [14] deals with SF-539 CNS.
In assay [15] the test system is SNB-19 CNS.
Assay [16] deals with T-47D breast.
Assay [17] deals with UO-31 renal.

Each structure is given as a SMILES string.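 These data come from cells grown in 96-well plates and exposed to compound for 48 hours at five concentrations. Definition used: TGI = concentration required for complete inhibition of growth.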

For `CN(C)CCCNC(=O)c1cc(NC(=O)c2cc(NS(=O)(=O)c3ccc4c(c3)C(=O)c3ccccc3C4=O)cn2C)cn1C`, the TGI in assay [1], in assay [2], in [3], in [4], in assay [5] and in assay [6] was above 100 µM throughout. For the same compound, the TGI in assay [7], in [8], in assay [9], in [10], in assay [11] and in [12] was above 100 µM in each case. In addition, the TGI in assay [13], in assay [14], in assay [15], in assay [16] and in assay [17] was above 100 µM in each case.
Take `C=C(C)CNC(=S)N(N)c1ccc(OC)cc1`: the TGI in [1], in assay [2], in [3], in [4], in assay [5] and in assay [6] was above 100 µM each time. The TGI in assay [7], in assay [8], in [9], in [10], in [11] and in assay [12] was above 100 µM throughout. Moreover, the TGI in assay [13], in assay [14], in assay [15], in assay [16] and in [17] was above 100 µM in each case.
For `CCOC(=O)CC(=O)C(=O)NNC1=NCCN1`, the TGI in [1], in assay [2], in [3], in assay [4], in assay [5] and in assay [6] was above 100 µM each time. Besides, the TGI in assay [7], in assay [8], in [9], in assay [10], in [11] and in assay [12] was above 100 µM each time. In addition, the TGI in assay [13], in [14], in [15], in [16] and in assay [17] was above 100 µM in each case.
Consider `CC1=C(C#N)C23C(=O)c4ccccc4C(O)=C2C(=O)C=CC3(O)N1` (stereo unspecified), for which the TGI in assay [1] is 28.1 µM; in [2] it was 3.38 µM; in assay [3], above 100 µM; in [4], above 100 µM; in [5], above 100 µM; in [6] it was 23 µM. Besides, the TGI in [7] is 51 µM; in assay [8] it was 13 µM; in assay [9] it was 43.5 µM; in assay [10] it was above 100 µM; in assay [11] it was above 100 µM; in assay [12] it was 9.74 µM. Besides, the TGI in assay [13] was 66.9 µM; in assay [14], 8.83 µM; in assay [15] it was 25.5 µM; in assay [16], above 100 µM; in assay [17], 7.55 µM.
On to `CC1(C)C=Cc2c(cc3oc4ccc5c(c4c(=O)c3c2O)C=CC(C)(C)O5)O1`, for which the TGI in assay [1], in assay [2], in [3], in [4], in assay [5] and in assay [6] was above 100 µM each time. Also, the TGI in assay [7], in [8], in assay [9], in assay [10], in assay [11] and in assay [12] was above 100 µM in each case. The TGI in assay [13], in assay [14], in [15], in assay [16] and in assay [17] was above 100 µM in each case.
Turning to `COc1ccc2oc(=Nc3ccccc3)c(C(N)=O)cc2c1`, the TGI in [1], in assay [2], in assay [3], in assay [4], in assay [5] and in [6] was above 100 µM throughout. Moreover, the TGI in assay [7] is 98.4 µM; in assay [8], above 100 µM; in [9] it was above 100 µM; in assay [10] it was above 100 µM; in assay [11], above 100 µM; in assay [12] it was above 100 µM. Moreover, the TGI is above 100 µM in [13]; above 100 µM in [14]; above 45.1 µM in assay [15]; above 100 µM in assay [16]; above 55.6 µM in assay [17].
For `c1ccc(N=C(N2CCOCC2)N(CCN2CCOCC2)c2ccccc2)cc1`, the TGI in [1], in [2], in assay [3], in assay [4], in [5] and in [6] was above 100 µM each time. In addition, the TGI in [7], in assay [8], in [9], in [10], in assay [11] and in [12] was above 100 µM each time. The TGI in [13], in [14], in assay [15], in [16] and in assay [17] was above 100 µM each time.
`C1=Nc2ccc(cc2)N=Cc2ccccc2OCc2cccc(n2)COc2ccccc21`: the TGI in assay [1], in assay [2], in [3], in [4], in assay [5] and in assay [6] was above 100 µM throughout. In addition, the TGI in [7] is above 100 µM; in [8], above 100 µM; in assay [9], above 100 µM; in assay [10] it was above 100 µM; in assay [11], above 100 µM; in assay [12], 36.2 µM. The TGI was above 100 µM in assay [13]; 81.6 µM in assay [14]; 75.1 µM in assay [15]; above 100 µM in assay [16]; above 100 µM in [17].

For the origin of these results see PubChem BioAssay (NCI).
